Laboratory results taken from US20130202629A1, “USES OF PHOSPHOLIPID CONJUGATES OF SYNTHETIC TLR7 AGONISTS” (The Regents of the University of California, priority 2010, published 2013).

Columns and labels:
TLR7 = biological target: T1, TLR7 (Mus musculus, UniProt P58681); assay: In vitro cytokine induction (TNF-alpha, IL-6, IL-12; ELISA) in murine macrophages: RAW264.7 cells and BMDM; assay type: cell-based; conditions: normalized to the molar level of the unconjugated agonist (SM)
T1 construct: BMDM were prepared from C57BL/6 and TLR7 deficient mice; endogenous in cells; host or cells: RAW264.7 (ATCC); bone marrow derived macrophages from C57BL/6 mice
T1 sequence (P58681 27-1050): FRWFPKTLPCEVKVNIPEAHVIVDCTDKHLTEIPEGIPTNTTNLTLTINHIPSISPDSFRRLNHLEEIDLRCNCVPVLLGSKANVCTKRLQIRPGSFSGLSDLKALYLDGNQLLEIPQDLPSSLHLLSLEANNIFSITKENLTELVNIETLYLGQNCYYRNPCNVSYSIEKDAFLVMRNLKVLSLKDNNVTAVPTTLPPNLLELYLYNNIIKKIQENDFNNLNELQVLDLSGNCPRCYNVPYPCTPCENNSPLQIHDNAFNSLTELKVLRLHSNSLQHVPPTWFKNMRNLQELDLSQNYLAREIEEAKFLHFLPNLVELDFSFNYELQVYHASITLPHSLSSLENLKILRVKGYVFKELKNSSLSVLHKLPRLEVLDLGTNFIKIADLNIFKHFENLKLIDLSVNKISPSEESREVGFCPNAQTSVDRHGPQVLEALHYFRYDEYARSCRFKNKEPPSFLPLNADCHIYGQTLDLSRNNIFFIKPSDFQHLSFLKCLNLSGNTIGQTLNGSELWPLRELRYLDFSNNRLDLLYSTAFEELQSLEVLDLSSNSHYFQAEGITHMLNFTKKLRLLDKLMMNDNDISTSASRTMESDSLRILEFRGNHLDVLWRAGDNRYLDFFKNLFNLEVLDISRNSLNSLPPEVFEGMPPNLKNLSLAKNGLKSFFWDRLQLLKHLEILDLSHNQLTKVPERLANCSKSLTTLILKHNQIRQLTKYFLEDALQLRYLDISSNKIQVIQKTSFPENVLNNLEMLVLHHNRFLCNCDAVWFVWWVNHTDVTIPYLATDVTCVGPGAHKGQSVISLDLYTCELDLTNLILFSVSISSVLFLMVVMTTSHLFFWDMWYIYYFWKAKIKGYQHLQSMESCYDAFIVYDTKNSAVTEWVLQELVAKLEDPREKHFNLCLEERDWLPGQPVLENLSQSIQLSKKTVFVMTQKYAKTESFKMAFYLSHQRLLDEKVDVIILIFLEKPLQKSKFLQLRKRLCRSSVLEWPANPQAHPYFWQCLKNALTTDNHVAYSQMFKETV
Method: In vitro measurements of cytokine induction were performed using the mouse leukemic monocyte macrophage cell line, RAW264.7. […] BMDM were prepared from C57BL/6 and TLR7 deficient mice as described in Wu, C. C et al., “Immunotherapeutic activity of a conjugate of a Toll-like receptor 7 ligand”, Proc. Natl. Acad. Sci. USA, 104:3990 (2007).
In general, RAW264.7 cells or BMDM were incubated with various concentrations of conjugates for 18 hours at 37° C., 5% CO2 and culture supernatants were collected. The levels of cytokines (IL-6, IL-12 or TNF-α in the supernatants were determined by ELISA (BD Biosciences Pharmingen, La Jolla, Calif.) (Cho, H. J et al., “Immunostimulatory DNA-based vaccines induce cytotoxic lymphocyte activity by a T-helper cell-independent mechanism” [see comments], Nat. Biotechnol., 18:509 (2000)), and the results presented in FIGS. 2A-D. Data are mean±SEM of triplicates and are representative of three independent experiments. Minimum detection levels of these cytokines were 15 pg/mL.
TNFα levels were measured (see FIG. 2A) by incubating approximately 1×10^6/mL RAW 264.7 cells with the various conjugates or controls, as described above. IL-6 and IL-12 levels were measured (see FIGS. 2B-D) by incubating 0.5×10^6/mL BMDM with the various conjugates or controls, as described above. […]

[1] = system: Anthrax Sterne strain spores; assay type: in vivo, Bacillus anthracis
Solubility = assay type: physicochemical
C57BL/6 mice = assay: In vivo evaluation of adverse effects after OVA plus TLR7 conjugate immunization; conditions: OVA mixed with conjugate, 10 nmoles per mouse
[2] = system: C57BL/6 mice or caspase 1 deficient; assay: Induction of bladder inflammation by intravesical treatment; assay type: in vivo, mouse; conditions: intravesical 150 nmoles
Text: C57BL/6 mice or caspase 1 deficient were intravesically treated with 150 nmoles 1V270 or vehicle alone three times at two-day intervals. One set of mice was sacrificed twenty-four hours after the first treatment (FIG. 7). Another set of mice was sacrificed twenty-four hours after the third treatment. […] This inflammation was not detected in the caspase 1 deficient mice.

Structure (SMILES): CCCCCCCC/C=C\CCCCCCCC(=O)OCC(COP(=O)(O)OCCNC(=O)c1ccc(Cn2c(=O)[nH]c3c(N)nc(OCCOC)nc32)cc1)OC(=O)CCCCCCC/C=C\CCCCCCCC (stereo not drawn) [Compound 6, 2-(4-((6-amino-2-(2-methoxyethoxy)-8-oxo-7H-purin-9(8H)-yl)methyl)benzamido)ethyl 2,3-bis(oleoyloxy)propyl phosphate]
- potency as cytokine inducer relative to the unconjugated agonist (TLR7): 10 fold
- survival on day 30, long term experiment ([1]; IRS mixed with 1 nmol, i.n. three times at two week intervals, challenge four weeks later): 100%
- survival on day 15, short term experiment ([1]; IRS with 1 nmol, single vaccination, challenge six days later): More than half
- effective dose, unformulated in DMSO ([1]; adjuvant with IRS): 1 nmol
- efficacy compared with cholera toxin (CT) as adjuvant ([1]; in vivo): slightly more effective than mice that received CT as an adjuvant
- protection from pulmonary anthrax infection ([1]; mucosal immunization with killed anthrax spores): completely protected mice from pulmonary anthrax infection
- spore-specific cellular immune responses ([1]; splenocytes of surviving mice cultured with IRS for 5 days): induced spore-specific Th1 and Th17 cellular immune responses
- solubility, in words (Solubility; aqueous solution / suitable solvents for testing): difficulty in dissolution
- upper limit of solubility (Solubility; in PBS): ~100 µM
- average body weights versus mice injected saline (C57BL/6 mice): No significant differences
- bladder inflammation (mononuclear cell infiltration) ([2]; C57BL/6 mice, three times at two-day intervals): infiltration of mononuclear cells were observed and increased after the third treatment
- bladder inflammation in caspase 1 deficient mice ([2]; caspase 1 deficient mice): not detected
